Measurements taken from ChEMBL document CHEMBL2151036, “Chemocentric informatics approach to drug discovery: identification and experimental validation of selective estrogen receptor modulators as ligands of 5-hydroxytryptamine-6 receptors and as potential cognition enhancers” (J Med Chem, 2012).

What follows are compounds tested against 5-hydroxytryptamine receptor 6 (Homo sapiens, UniProt P50406) (assay: Displacement of [3H]LSD from human 5HT6 receptor expressed in HEK293 cells after 1.5 hrs by liquid scintillation counting). Settings: not given; call rule not given here.
Chain of 5-hydroxytryptamine receptor 6 (P50406 whole entry): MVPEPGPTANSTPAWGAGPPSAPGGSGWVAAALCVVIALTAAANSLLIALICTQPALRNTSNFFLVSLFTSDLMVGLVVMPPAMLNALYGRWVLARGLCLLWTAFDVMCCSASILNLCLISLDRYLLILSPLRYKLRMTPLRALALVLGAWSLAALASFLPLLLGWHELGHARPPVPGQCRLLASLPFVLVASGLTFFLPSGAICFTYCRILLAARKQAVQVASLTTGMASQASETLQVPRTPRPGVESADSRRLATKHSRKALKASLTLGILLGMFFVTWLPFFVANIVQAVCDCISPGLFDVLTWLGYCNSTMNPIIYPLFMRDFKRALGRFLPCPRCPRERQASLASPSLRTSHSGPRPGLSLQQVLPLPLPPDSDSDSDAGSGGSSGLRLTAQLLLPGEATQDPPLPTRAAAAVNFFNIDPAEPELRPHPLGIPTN

SMILES | Ki [nM]
O=C1NCN(c2ccccc2)C12CCN(CCCC(c1ccc(F)cc1)c1ccc(F)cc1)CC2 | 1190
CCN(CC)CCOc1ccc(C(=C(Cl)c2ccccc2)c2ccccc2)cc1 [CLOMIPHENE] | 1960
CN(C)CCCN1c2ccccc2CCc2ccc(Cl)cc21 [CLOMIPRAMINE] | 112
CNCCC=C1c2ccccc2CCc2ccccc21 [NORTRIPTYLINE] | 214
O=C(c1ccc(OCCN2CCCCC2)cc1)c1c(-c2ccc(O)cc2)sc2cc(O)ccc12 [RALOXIFENE] | 750
CC/C(=C(\c1ccccc1)c1ccc(OCCN(C)C)cc1)c1ccccc1 [TAMOXIFEN] | 1040
CN(C)CCOc1ccc(/C(=C(/CCCl)c2ccccc2)c2ccccc2)cc1 [TOREMIFENE] | 4120
OCCN1CCN(CC/C=C2/c3ccccc3Sc3ccc(Cl)cc32)CC1 [ZUCLOPENTHIXOL] | 169

Same assay, conditions: hek293

Ki | SMILES
Not Active | CC(NCCC(c1ccccc1)c1ccccc1)c1ccccc1 (stereo unspecified) [FENDILINE]
Not Active | O=c1cc(N2CCOCC2)oc2c(-c3ccccc3)cccc12 [LY-294002]

SMILES | Ki
COc1ccccc1N1CCN(CCCCNC(=O)c2ccc3ccccc3c2)CC1 [BP-897] | Not Active
